Reference: article PMC11200976, “Pitavastatin Calcium Confers Fungicidal Properties to Fluconazole by Inhibiting Ubiquinone Biosynthesis and Generating Reactive Oxygen Species” (Antioxidants, 2024)
Like-named read-outs stand apart in the source and are kept apart here.

Tests used:
C. albicans [1] = test: Determination of MFC; format: cell-based, Candida albicans; settings: for MFC: Candida albicans
Method: The determination of MFC followed the previously described method. In brief, a tested drug at a concentration two times higher than the final concentration was diluted in a two-fold serial dilution manner across ten columns of the plate, with each well containing 100 μL of the drug. Subsequently, 100 μL of C. albicans cultures (1 × 10^4 cells/mL) were transferred into wells with and without any drugs as the control. Following incubation at 30 °C for 48 h, a 200 μL aliquot per well was removed and evenly spread on SDA plates, which were then incubated at 30 °C for 48 h. The MFC value was determined as the lowest drug concentration at which 99.9% of fungal colonies were eradicated compared to the control group.

C. albicans [2] = test: Murine invasive C. albicans infections (C57BL/6 mice); format: in vivo, Candida albicans
Method: . Before commencing drug therapy, the mice were inoculated with 200 μL of PBS containing 2 × 10^5 C. albicans cells via the lateral tail vein. […]. The mice were weighed, and their weights were recorded every three days while their survival was monitored daily for 30 days. Two-tailed unpaired t-tests were employed to assess the weight changes. Kaplan–Meier analyses were employed to assess the survival probabilities, while log-rank testing was utilized to determine the statistical significance of the survival curves. In the case of fungal burden analyses, the mice were closely monitored twice daily for any indications of infection and were euthanized humanely upon reaching the predetermined endpoints. Subsequently, each mouse’s spleen, liver, and kidneys were harvested and homogenized in sterile PBS after sacrifice, followed by streaking onto SDA agar plates. Following a 48 h incubation period, the colonies were quantified, and colony-forming units (CFUs) were calculated. For histopathological analysis, kidney tissues from mice infected for 6 or 10 days were procured and fixed in buffered formalin. Subsequently, the tissues were embedded in paraffin, sectioned into 3–4 μm slices, and subjected to PAS staining using established protocols. All experimental procedures involving animals were approved by the Tongji University Animal Care Committee (No.: TJAA00322101).

[3] = tested on: Candida glabrata clinical isolates; test: Supra-MIC growth (SMG) of FLC in clinical isolates; format: cell-based; settings: n = 4 isolates
C. albicans [4] = test: MIC assays (CLSI M27 broth microdilution); format: cell-based, Candida albicans; settings: for MIC: Candida albicans
Method: The MIC assays for C. albicans were conducted following the broth microdilution protocol outlined by the Clinical and Laboratory Standards Institute (CLSI) protocols (M27, 4th edition). In brief, FDA-approved drugs were diluted in 96-well plates at two-fold the final concentration, with 4 μg/mL FLC. This dilution was combined with the cell suspension with a concentration of 1 × 10^3 cells/mL. The plates were incubated at a temperature of 30 °C for 48 h without agitation.

[5] = tested on: C. albicans clinical isolates; test: Supra-MIC growth (SMG) of FLC in clinical isolates; format: cell-based, Candida albicans; settings: n = 7 isolates
[6] = tested on: Candida guilliermondii clinical isolates; test: Supra-MIC growth (SMG) of FLC in clinical isolates; format: cell-based; settings: n = 7 isolates
C. albicans [7] = test: Dose–matrix titration assays (synergy, with YPD recovery plates); format: cell-based, Candida albicans; settings: FLC ≤4 μg/mL; YPD, 30 °C, 48 h
Method: The synergistic effects of drugs were conducted following the same procedure as the MIC assays. Specifically, 50 μL of drug A was distributed through two-fold serial dilution across seven plate columns. Subsequently, 50 μL of drug B was distributed in a two-fold serial dilution manner along seven rows of the plate. Furthermore, 100 μL of C. albicans cultures, adjusted to a density of 1 × 10^3 cells/mL, was dispensed into wells containing drugs and one control well devoid of any drugs. Before the 48 h OD600 readings, the plates were subjected to meticulous agitation to ensure the deposition of a representative 2 μL aliquot from each well onto newly prepared YPD recovery plates, thereby facilitating the evaluation of cellular recuperation following drug treatments. The recovery plates were subsequently incubated at a temperature of 30 °C for a duration ranging from 24 to 48 h, after which they were photographed. The experimental procedures were conducted in triplicate to ensure reliability and reproducibility.

[8] = Acute toxicity, Up-and-Down procedure (OECD 425), intraperitoneal; format: in vivo; settings: C57BL/6, mouse, in vivo, ip, mice
Method: (§1) Following a previously described methodology, the intraperitoneal route was employed in adult mice. In brief, the primary test involved a sequential administration of doses at intervals of at least 48 h, with one mouse being dosed at a time. Initially, a dose below LD50 was administered intraperitoneally to a mouse. If the mouse survived, the subsequent mouse would receive 1.3 times the initial dose. Conversely, if the mouse died, the subsequent mouse would receive a dose decreased by 1.3 times the initial dose. Each mouse was monitored for 48 h before determining the subsequent mouse’s dosage and administration. The experiment was terminated upon five “survive or die” reversals within a consecutive set of six animals tested. Subsequently, the LD50 and its corresponding confidence interval were computed based on the conditions observed in all mice after the experiment.

[9] = tested on: C. albicans SC5314, SN152, cmp1-aid∆/cmp1-aid∆, and PADH1-UPC2 strains; test: FLC disk diffusion assays (25 μg FLC disk, 5 μM adjuvant); format: cell-based, Candida albicans; settings: PADH1-UPC2
Method: Yeast cells were cultured overnight at a temperature of 30 °C, and the resulting cell suspension was diluted to a concentration of 1 × 10^7 cells/mL in phosphate-buffered saline (PBS). At a concentration of 5 μM, the drugs were individually added to YPD plates for disk assays using a 25 μg FLC disk (6 mm, Liofilchem, Roseto degli Abruzzi, Italy). The plates were then incubated at 30 °C for 48 h. Subsequently, the disk was transferred to a drug-free YPD plate, which was incubated at 30 °C for 24 h and photographed.

C. albicans [10] = test: Broth microdilution assay of synergistic lethality with 4 μg/mL FLC (recovery on drug-free YPD); format: cell-based, Candida albicans
C. albicans [11] = test: Spotting assay; format: cell-based, Candida albicans; settings: 4 μM PIT; compared to wild-type strain and other heterozygous gene deletion mutants
Method: The spotting assays were conducted following the previously described method. In summary, C. albicans cultures were adjusted to a cell density of 1 × 10^7 cells/mL using a hemacytometer. Subsequently, the cultures were serially diluted 1:10 and spotted onto a designated YPD solid medium containing specified concentrations of compounds. Following incubation at 30 °C for 48 h, photographs capturing the cell growth were taken, and the assays were replicated thrice.

[12] = tested on: ERG1, ERG11, and ERG251 genes; format: cell-based, Candida albicans; settings: 2 μM PIT alone, 8 h
mice = test: Acute toxicity, Up-and-Down procedure (OECD 425), intraperitoneal; format: in vivo
Method: as §1

Which results are given for `OC(Cn1cncn1)(Cn1cncn1)c1ccc(F)cc1F` [FLC, Fluconazole]?
MFC (C. albicans [1]; absence of PIT): > 64 µg/mL; MFC (C. albicans [1]; in the presence of PIT (1 μM)): 2 µg/mL; ratio of MFC to MIC of FLC (C. albicans [1]; in the presence of 1 μM PIT): 4; kidney fungal burden in cmp1-aidΔ/cmp1-aidΔ infected group compared to cmp1Δ/cmp1Δ infected group (C. albicans [2]; after 1 mg/kg FLC ip for 3 days, 6 or 10 days after infection): notably greater; mortality rate (C. albicans [2]; clinical isolate 283, FLC 4 mg/kg, PIT 3 mg/kg, 30-day observation period): 50%; average weight loss on the 15th day of infection (C. albicans [2]; clinical isolate 283, FLC 4 mg/kg, PIT 3 mg/kg, ten mice per group): 1.16 ± 0.63 g; SMG value of FLC ([3]; FLC alone): 0.3169; SMG value of FLC ([3]; in combination with PIT, p = 0.0442): 0.0031; MIC (C. albicans [4]; SEC14/sec14△, YPD + 0.5 μM PIT, read-out: MIC of FLC): 1 µg/mL; MIC (C. albicans [4]; SEC14/sec14△, YPD + 1 μM PIT, read-out: MIC of FLC): 0.5 µg/mL; MIC (C. albicans [4]; SEC14/sec14△, YPD, read-out: MIC of FLC): 1 µg/mL; MIC (C. albicans [4]; SN152, YPD, read-out: MIC of FLC): 1 µg/mL; MIC (C. albicans [4]; read-out: MIC of FLC, age3△/age3△, YPD + 0.5 μM PIT): 0.25 µg/mL; MIC (C. albicans [4]; read-out: MIC of FLC, age3△/age3△, YPD + 1 μM PIT): 0.125 µg/mL; SMG value of FLC ([5]; FLC alone): 0.1203; SMG value of FLC ([5]; in combination with PIT, p = 0.002): 0; SMG value of FLC ([6]; FLC alone): 0.0667; SMG value of FLC ([6]; in combination with PIT, p = 0.0362): 0.0166

For `O=C(O)C[C@H](O)C[C@H](O)/C=C/c1c(C2CC2)nc2ccccc2c1-c1ccc(F)cc1` [PIT, pitavastatin calcium], which “concentration that renders FLC fungicidal (no recovery on YPD solid medium)” value (C. albicans [7]) is on record?
Its value is at most 3.125 µM.

What about the “concentration of PIT that renders FLC fungicidal” value (C. albicans [1]; as low as) of the same compound?
Its value is 1 µM.

And the LD50 at 48 h [8]?
Its LD50 at 48 h is 104 mg/kg.

And the “effect on FLC tolerance in FLC disk diffusion, all four strains” value ([9]; SC5314, SN152, cmp1-aid∆/cmp1-aid∆)?
The value was “made FLC fungicidal”.

And the “synergistic lethal concentration (converts FLC from fungistatic to fungicidal)” value (C. albicans [10]; with 4 μg/mL FLC, tested 100 μM to 0.1953 μM, 30 °C, 48 h)?
The value was at most 6.25 µM.

What about the “susceptibility of HMG1/hmg1Δ, ERG8/erg8Δ and IDI1/idi1Δ mutants to PIT” value (C. albicans [11]) of the same compound?
Its value is “more susceptible”.

And the “mRNA expression level of ERG1 gene, upregulation” value [12]?
The value was 2 fold.

And the “mRNA expression level of ERG11 gene, upregulation” value [12]?
Its value is 2 fold.

What about the “mRNA expression level of ERG251 gene, upregulation” value [12] of the same compound?
The value was 2 fold.

And the “antifungal efficacy of PIT with exogenous ergosterol” value (C. albicans [4]; 100 μM exogenous ergosterol, SN152, MIC and spotting assays)?
Its value is “negated”.

And the “antifungal effects of PIT with exogenous mevalonate” value (C. albicans [4]; 100 μM exogenous mevalonate, SN152, MIC and spotting assays)?
The value was “mitigated”.

And the MIC (C. albicans [4]; SEC14/sec14△, YPD, read-out: MIC of PIT)?
The MIC was 2 µM.

What about the MIC (C. albicans [4]; SN152, YPD, read-out: MIC of PIT) of the same compound?
The MIC was 2 µM.

What about the MIC (C. albicans [4]; age3△/age3△, YPD, read-out: MIC of PIT) of the same compound?
The MIC was 2 µM.

And the MIC (C. albicans [4]; control strain (wild-type), read-out: MIC of PIT)?
The MIC was 3.12 µg/mL.

What about the MIC (C. albicans [4]; hac1△/hac1△, YPD, read-out: MIC of PIT) of the same compound?
Its MIC is 2 µM.

What about the MIC (C. albicans [4]; hse1△/hse1△, YPD, read-out: MIC of PIT) of the same compound?
Its MIC is 2 µM.

What about the MIC (C. albicans [4]; ire1△/ire1△, YPD, read-out: MIC of PIT) of the same compound?
Its MIC is 2 µM.

What about the MIC (C. albicans [4]; mvb12△/mvb12△, YPD, read-out: MIC of PIT) of the same compound?
The MIC was 2 µM.

What about the MIC (C. albicans [4]; read-out: MIC of PIT, erg11∆/erg11∆ null mutant) of the same compound?
Its MIC is 0.195 µg/mL.

And the MIC (C. albicans [4]; snf7△/snf7△, YPD, read-out: MIC of PIT)?
Its MIC is 2 µM.

What about the MIC (C. albicans [4]; vps20△/vps20△, YPD, read-out: MIC of PIT) of the same compound?
The MIC was 2 µM.

And the MIC (C. albicans [4]; vps22△/vps22△, YPD, read-out: MIC of PIT)?
Its MIC is 2 µM.

And the MIC (C. albicans [4]; vps23△/vps23△, YPD, read-out: MIC of PIT)?
Its MIC is 2 µM.

And the MIC (C. albicans [4]; vps28△/vps28△, YPD, read-out: MIC of PIT)?
The MIC was 2 µM.

And the MIC (C. albicans [4]; vps36△/vps36△, YPD, read-out: MIC of PIT)?
Its MIC is 2 µM.

Which “concentration that renders FLC fungicidal (no recovery on YPD solid medium)” value (C. albicans [7]) does the source give for polymyxin B sulfate here?
The value was at most 3.125 µM.

And the LD50 (mice)?
The LD50 was 25 mg/kg.

What about the “effect on FLC tolerance in FLC disk diffusion, PADH1-UPC2 strain” value [9] of the same compound?
Its value is “unsuccessful in reducing FLC tolerance”.

And the Synergistic lethal concentrations (C. albicans [10]; concentration of the compound that is synergistically lethal with 4 μg/mL FLC, C. albicans, recovery on drug-free YPD)?
Its Synergistic lethal concentrations is 6.25 µM.
